From patent US20110054034A1, “METHODS OF USING […] AS ANTIMICROBIAL AGENTS” (priority 2008, published 2011)

Legend:
Assay type in all cases: in vivo
[1] = tested on: gram+bacterial infection on the skin; assay: Treating a topical infection in a human; details: 2.5% cream applied twice daily, after about 4 days
Excerpt: A 50 kg person is diagnosed by a dermatologist with a gram+bacterial infection on the skin of their left foot. They prescribed a 2.5% cream of 5-bromo-2-[[(2E)-3-(2-naphthalenyl)-1-oxo-2-butenyl]amino]benzoic acid which they applied twice daily.

S. aureus = assay: Treating a systemic infection in a human; details: two 300 mg tablets three daily
Procedure: A 70 kg person has a 102° fever and a bad cough. An internist diagnoses their problem as a systemic gram+bacterial infection of S. aureus. They prescribe trans-3-(naphth-2-yl)but-2-enoic acid-N-(2-carboxyphenyl)amide with the directions to take two 300 mg tablets three daily which the patient does.

badly infected wound = assay: Treating a systemic infection in a dog (infected wound); details: 15 kg dog, 300 mg twice a day mixed in food
Procedure: A 15 kg dog with a badly infected wound is given 300 mg twice a day mixed in his food of trans-3-(naphth-2-yl)-but-2-enoic acid-N-(2-carboxyphenyl)amide. After 2 days the wound looks better and after 5 days it is almost healed.

SMILES	appearance of the skin [1]	gram+bacterial infection on the skin of the foot [1]	cough (S. aureus; after five days)	temperature (S. aureus; after five days)	fever (S. aureus; after two days)	appearance of the infected wound (badly infected wound; after 2 days)	healing of the infected wound (badly infected wound; after 5 days)
C/C(=C\C(=O)Nc1ccc(Br)cc1C(=O)O)c1ccc2ccccc2c1 [5-bromo-2-[[(2E)-3-(2-naphthalenyl)-1-oxo-2-butenyl]amino]benzoic acid]	appears normal	the infection was gone					
C/C(=C\C(=O)Nc1ccccc1C(=O)O)c1ccc2ccccc2c1 [trans-3-(naphth-2-yl)-but-2-enoic acid-N-(2-carboxy-phenyl)-amide]			cough is gone	temperature is normal	the fever comes down	looks better	almost healed
